Earlier results, collected in patent US20150056314A1, “EXTRACTION METHOD FOR USE IN EXTRACTING BENEFICIAL COMPOUNDS FROM COFFEE BEANS” (Applied Food Sciences, Inc., priority 2003, published 2015).

Key:
[1] = test system: methylazoxymethanol-induced large intestinal tumors; conditions: hamster models
[2] = test system: rat stomach cancer; conditions: rat (Shimizu et al J Toxicol Sci 1999)

In the case of O=C(/C=C/c1ccc(O)c(O)c1)O[C@@H]1C[C@](O)(C(=O)O)C[C@@H](O)[C@H]1O [chlorogenic acid], the “inhibition of methylazoxymethanol-induced large intestinal tumors” value [1] is listed as “inhibit” and the “effect on rat stomach cancer” value [2] is listed as “chemopreventative effect”.
